Results as given in patent US9598441B2, “Therapeutic compounds and methods” (Wayne State University, priority 2011, dated 2017).

Columns and labels:
Assay type in all cases: cell-based, human
[1] = tested on: HBC, colon, prostate, pancreatic cancer, MPM and lymphoma cells; assay: MTT cell viability assay, cancer cells
Experimental: Logarithmically growing cells were either untreated or treated with different agents for various time periods. The cells were lysed to prepare protein extracts. IP was carried out by incubating approximately 1 mg of the protein lysate with appropriate antibodies, and the immunoprecipitates or cell lysates were then electrophoresed on 9-12% SDS-polyacrylamide gels, and transferred to nitrocellulose membranes. The membranes were subsequently probed with various antibodies to determine expression/presence of the corresponding proteins. The cell growth inhibition was assessed by using MTT assay. Briefly, MTT (3-[4,5-Dimethylthiazol-2-yl]-2,5diphenyltetrazolium bromide) was dissolved in sterile 1×PBS to prepare a stock solution of 5 mg/ml. The solution was subsequently filtered through 0.2 μm filter and stored at 2-8° C. 4−5×10^2 cells were seeded in 96-well plates. After 72 h incubation with or without different agents, MTT stock solution was added to each culture being assayed to equal one tenth the original culture volume, followed by incubation of cells at 37° C. for another 2 h. At the end of the incubation, the media was removed and cells were treated with 100-200 μl of DMSO to solubilize the dye. The assessment of the live cells was derived by measuring the absorbance of the converted dye at wavelength of 570 nm.
(§1) To test whether CFMs that interfere with CARP-1 binding with APC-2 modulate cell growth, HBC, colon, prostate, pancreatic cancer, MPM and lymphoma cells, as well as the immortalized, mammary epithelial MCF-10A cells were utilized. The cells were either treated with vehicle (DMSO) or various doses of the respective compound for a period of 72 h, and percent of live/viable cells for each compound was determined relative to the untreated controls as described in Methods.

[2] = tested on: MDA-MB-468 wild-type, vector and CARP-1 (Δ896-978) expressing cells; assay: MTT assay in stable HBC sublines expressing vector or CARP-1 (Δ896-978); conditions: for growth of wild-type, vector and CARP-1 (Δ896-978) expressing cells (MTT): 0.1 and 1.0 μg/ml ADR, or 5 and 10 μM CFM-4; for sensitivity of CARP-1 (Δ896-978) expressing cells to inhibition: versus wild-type or vector cells
Description: Routine maintenance and culture of MDA-MB-231, MDA-MB-468, SKBR-3 (all lack ER and have mutant p53), MCF-7, T47D (both have ER and wild-type p53) HBC cells (Runnebaum, I. B., Nagarajan, M., Bowman, M., Soto, D., and Sukumar, S. (1991). Proc. Natl. Acad. Sci. USA 88, 10657-10661), human prostate cancer PC3 and LnCAP cells, HCT-116 human colon cancer, human pancreatic cancer PANC-1 and BxPC-3, Burkett lymphoma Raji, diffuse large B-cell lymphoma WSU-DLCL2, follicular lymphoma WSU-FSCCL cells, cervical cancer HeLa, human mesothelial Met5a, human pleural malignant mesothelioma (MPM), murine MPM AB12 cells (Wang, Y., Rishi, A. K., Puliyappadamba, V. T., Sharma, S., Yang, H., Tarca, A., Dou, Q. P., Lonardo, F., Ruckdeschel, J. C., Pass, H. I., Wali, A. (2010) Can. Chemother. Pharmacol. 66, 455-466), and the green monkey kidney Cos-7 cells was carried out essentially as described (Rishi, A. K., Zhang, L., Boyanapalli, M., Wali, A., Mohammad, R. M., Yu, Y., Fontana, J. A., Hatfield, J. S., Dawson, M. I., Majumdar, A. P. N., and Reichert, U. (2003) J. Biol. Chem. 278, 33422-33435, Rishi, A. K., Zhang, L., Yu, Y., Jiang, Y., Nautiyal, J., Wali, A., Fontana, J. A., Levi, E., and Majumdar, A. P. N. (2006) J. Biol. Chem. 281(19), 13188-98, Zhang, L., Levi, E., Majumder, P., Yu, Y., Aboukameel, A., Du, J., Xu, H., Mohammad, R. M., Hatfield, J. S., Wali, A., Adsay, V., Majumdar, A. P. N., and Rishi, A. K. (2007) Mol. Cancer Ther. 6(5), 1661-1672, Levi, L., Zhang, L., Aboukameel, A., Rishi, S., Mohammad, R. M., Polin, L., Hatfield, J. S., and Rishi, A. K. Can. Chemother. Pharmacol. (in Press). The immortalized, non-tumorigenic human breast epithelial MCF-10A have been described before (Miller, F. R. (2000). J. Mammary Gland Biol. Neoplasia 5, 379-391). MCF-7 cells that are resistant to adriamycin (MCF-7/Adr/Vp) or tamoxifen (MCF-7-TAM) were obtained from Drs. Douglas Ross (University of Maryland Baltimore) and Kaladhar Reddy (Pathology Department, Wayne State University, Detroit, Mich.), respectively, and were maintained essentially following methods described before (Doyle, L. A., Yang, W., Abruzzo, L. V., Krogmann, T., Gao, Y., Rishi, A. K., and Ross, D. D. (1998). Proc. Natl. Acad. Sci. (USA), 95, 15665-15670, Nabha, S., Glaros, S., Hong, M., Lykkesfeidt, A. E., Schiff, R., Osborne, C. K., Reddy, K. B. (2005). Oncogene, 24, 3166-3176). The stable sublines were generated by transfecting the MDA-MB-468 cells with the vector or the recombinant pcDNA3/CARP-1 (Δ896-978)-myc-His plasmid followed by selection in the presence of 800 μg/ml neomycin using described methods (Rishi, A. K., Zhang, L., Boyanapalli, M., Wali, A., Mohammad, R M, Yu, Y., Fontana, J. A., Hatfield, J. S., Dawson, M. I., Majumdar, A. P. N., and Reichert, U. (2003) J. Biol. Chem. 278, 33422-33435).
Logarithmically growing cells were either untreated or treated with different agents for various time periods. The cells were lysed to prepare protein extracts. IP was carried out by incubating approximately 1 mg of the protein lysate with appropriate antibodies, and the immunoprecipitates or cell lysates were then electrophoresed on 9-12% SDS-polyacrylamide gels, and transferred to nitrocellulose membranes. The membranes were subsequently probed with various antibodies to determine expression/presence of the corresponding proteins. The cell growth inhibition was assessed by using MTT assay. […]

[3] = tested on: immortalized, non-tumorigenic mammary epithelial MCF-10A cells; assay: MTT cell viability assay, non-tumorigenic cells
Experimental: Logarithmically growing cells were either untreated or treated with different agents for various time periods. The cells were lysed to prepare protein extracts. IP was carried out by incubating approximately 1 mg of the protein lysate with appropriate antibodies, and the immunoprecipitates or cell lysates were then electrophoresed on 9-12% SDS-polyacrylamide gels, and transferred to nitrocellulose membranes. The membranes were subsequently probed with various antibodies to determine expression/presence of the corresponding proteins. The cell growth inhibition was assessed by using MTT assay. Briefly, MTT (3-[4,5-Dimethylthiazol-2-yl]-2,5diphenyltetrazolium bromide) was dissolved in sterile 1×PBS to prepare a stock solution of 5 mg/ml. […] The assessment of the live cells was derived by measuring the absorbance of the converted dye at wavelength of 570 nm.
as §1

| Compound | sensitivity of HBC cells compared with similar dose of CFM-1 and 5 (MTT) ([1]; HBC cells, 20 μM dose) | HBC cell growth / viability (MTT) ([1]; HBC cells, 72 h) | loss of viability of CARP-1 (Δ896-978) cells versus wild-type or vector-transfected cells ([2]; 10 μM dose) | growth of wild-type, vector and CARP-1 (Δ896-978) expressing cells (MTT) [2] | sensitivity of CARP-1 (Δ896-978) expressing cells to inhibition [2] | growth of MCF-10A cells (MTT) [3] | cell growth of MPM cells (MTT) ([1]; MPM cells, 72 h) |
| --- | --- | --- | --- | --- | --- | --- | --- |
| O=C1N(Cc2ccccc2Cl)c2ccccc2C12NN=C(c1ccccc1)S2 (stereo not shown) [CFM-4, 1-(2-chlorobenzyl)-5′-phenyl-3′H-spiro[indoline-3,2′-[1,3,4]thiadiazol]-2-one] | relative increased sensitivity | suppressed viabilities | greater loss of viability | suppressed growth | generally more sensitive | failed to attenuate growth | – |
| COc1cccc2c1C(=O)c1c(O)c3c(c(O)c1C2=O)C[C@@](O)(C(=O)CO)C[C@@H]3O[C@H]1C[C@H](N)[C@H](O)[C@H](C)O1 [ADR, adriamycin, reference compound] | – | – | – | suppressed growth | generally more sensitive | – | – |
| Cc1cc(Br)cc2c1NC(=O)/C2=C1\SC(=S)NC1=O [CFM-1, (Z)-5-(5-bromo-7-methyl-2-oxoindolin-3-ylidene)-2-thioxothiazolidin-4-one] | – | suppressed viabilities | – | – | – | – | elicited activity towards select MPM cells |
